# Measurements taken from patent publication EP0097439A2, “A crystalline prostaglandin salt” (THE UPJOHN COMPANY, priority 1982, dated 1984).
# Counter-ions that a name gives are not always drawn. Like-named read-outs stand apart in the source and are kept apart here.
# Legend:
# [1] = Plasma levels of 9-deoxo-16,16-dimethyl-9-methylene-PGE2 by radioimmunoassay after insertion of a suppository; type: in vivo, Rhesus monkeys (Macaca mulatta); conditions: rhesus monkey, plasma, 30 mg, plasma, read-out: Drug Levels
# Source text: A. Midtrimester pregnant female Rhesus monkeys (Macaca mulatta) are used. (The first day of menstrual bleeding is designated Day 1 of the menstrual cycle; the first day a female is placed with a male for breeding is designated Day 1 of pregnancy. Pregnancy is confirmed by abdominal palpation of the uterus.)
# Blood samples are collected into heparinized syringes at specified times following insertion of a suppository in pregnant or non- pregnant monkeys. Plasma is extracted and assayed for 9-deoxo-16,16-dimethyl-9-methylene-PGE2 content by radioimmunoassay.
# C. Six suppository lots are prepared (4), each containing 9- deoxo-16,16-dimethyl-9-methylene-PGE2 or its crystalline potassium salt (Examples 1 and 2). Two lots are made with Witepsol H15 alone as the suppository base, two with Witepsol HIS wax plus 2% colloidal silicon dioxide (CSD) and two with Witepsol H15 plus 2% CSD plus 10% triacetin. Suppositories are prepared using Witepsol H15 suppository wax. Free acid or potassium salt is dispersed in the hot wax using a homogenizer. Two percent colloidal silicon dioxide (CSD) is mixed in by further homogenization. In the third formulation, triacetin (10%) is added before the CSD and then homogenized for one minute. Suppositories are formed in 800 mg aluminum molds and are stored at 4°C until used.
# D. The plasma levels of 9-deoxo-16,16-d1methy1-9-methy1ene-PGE2 in monkeys treated with 6 formulations containing either 9-deoxo-16,16-dimethyl-9-methylene-PGE2 free acid or potassium salt are shown in Tables 1-6. In general, higher blood levels are measured in pregnant Rhesus monkeys than in non-pregnant monkeys.
# [2] = Water content / hygroscopicity of the crystalline solid; type: physicochemical
# Procedure: All solvents used in this example are degassed with nitrogen using a gas dispersion tube for 15 min prior to use. To a stirred solution of 4.82 g of 9-deoxo-16,16-dimethyl-9-methylene-PGE2 in 50 ml of methanol is added a solution of 880 mg of potassium carbonate in 15 ml of water. The reaction mixture is then allowed to stand for 5 min at 25°C and then concentrated under reduced pressure at 35°C. Eight 250 ml portions of anhydrous tetrahydrofuran are added and evaporated to insure complete removal of water. The residue, a pale yellow foam, is dissolved in 15 ml of methanol and added dropwise under a nitrogen atmosphere with vigorous stirring to one liter of diethyl ether. The initial cloudy suspension yields a gum-like residue on the walls of the reaction vessel after about 1 hr. Continued vigorous stirring for 24 hr leads to gradual crystallization and resuspension as a uniform, easily filterable solid. This suspension is then filtered using a medium porosity sintered glass funnel. The solids are washed with 15 ml of fresh diethyl ether at 25°C. After drying for 2 hr in a vacuum desiccator at 25°C, a colorless free-flowing crystalline solid, 5.13 g, is obtained, pure crystalline 9-deoxo-16,16-dimethyl-9-methylene-PGE2 potassium salt. IR absorptions (cm^-1) are observed at 3134, 1652, 1572, 1467, 1392, 1337, 1364, 1344, 1102, 1024, 974, and 883. […]
# [3] = Monkey #4, 30 mg Potassium Salt in H15 Suppositories
# [4] = Monkey #5, 30 mg Potassium Salt in H15 Suppositories
# [5] = Monkey #6 (pregnant animal with uterine recording), 30 mg Potassium Salt in H15 Suppositories
# [6] = Monkey #10, 30 mg Potassium Salt in H15 Plus 2% CSD Suppositories
# [7] = Monkey #11, 30 mg Potassium Salt in H15 Plus 2% CSD Suppositories
# [8] = Monkey #12 (pregnant animal with uterine recording), 30 mg Potassium Salt in H15 Plus 2% CSD Suppositories
# [9] = Monkey #16, 30 mg Potassium Salt in H15 Plus 2% CSD + 10% Triacetin Suppositories
# [10] = Monkey #17, 30 mg Potassium Salt in H15 Plus 2% CSD + 10% Triacetin Suppositories
# [11] = Monkey #18, 30 mg Potassium Salt in H15 Plus 2% CSD + 10% Triacetin Suppositories
smiles,measurement,setting,value
"C=C1C[C@@H](O)[C@H](/C=C/[C@@H](O)C(C)(C)CCCC)[C@H]1C/C=C\CCCC(=O)O [Potassium Salt, 9-deoxo-16,16-dimethyl-9-methylene-PGE2 potassium salt]",concentration at 0.25 h,[1]; [3],128 ng/mL
same,concentration at 0.5 h,"[1]; Monkey #4, 0.5 Hours, 30 mg Potassium Salt in H15 Suppositories",3.72 ng/mL
same,concentration at 1.5 h,[1]; [3],0.41 ng/mL
same,concentration at 2 h,[1]; [3],0.86 ng/mL
same,concentration at 3 h,[1]; [3],7.52 ng/mL
same,concentration at 4 h,[1]; [3],8.39 ng/mL
same,concentration at 6 h,[1]; [3],17.9 ng/mL
same,concentration at 24 h,[1]; [3],21.7 ng/mL
same,concentration at 0.25 h,[1]; [4],10.9 ng/mL
same,concentration at 1 h,[1]; [4],1.42 ng/mL
same,concentration at 1.5 h,[1]; [4],5.91 ng/mL
same,concentration at 2 h,[1]; [4],11.5 ng/mL
same,concentration at 3 h,[1]; [4],14.2 ng/mL
same,concentration at 4 h,[1]; [4],22.9 ng/mL
same,concentration at 6 h,[1]; [4],25 ng/mL
same,concentration at 24 h,[1]; [4],16.2 ng/mL
same,concentration at 0.25 h,[1]; [5],76.6 ng/mL
same,concentration at 0.5 h,"[1]; Monkey #6 (pregnant animal with uterine recording), 0.5 Hours, 30 mg Potassium Salt in H15 Suppositories",68.4 ng/mL
same,concentration at 1 h,[1]; [5],29.6 ng/mL
same,concentration at 1.5 h,[1]; [5],77.3 ng/mL
same,concentration at 2 h,[1]; [5],28.4 ng/mL
same,concentration at 3 h,[1]; [5],41.7 ng/mL
same,concentration at 4 h,[1]; [5],42.8 ng/mL
same,concentration at 6 h,[1]; [5],20.2 ng/mL
same,concentration at 24 h,[1]; [5],7.77 ng/mL
same,concentration at 0.25 h,[1]; [6],20.4 ng/mL
same,concentration at 1 h,[1]; [6],1.5 ng/mL
same,concentration at 1.5 h,[1]; [6],1.7 ng/mL
same,concentration at 2 h,[1]; [6],3.57 ng/mL
same,concentration at 3 h,[1]; [6],12.4 ng/mL
same,concentration at 4 h,[1]; [6],20.7 ng/mL
same,concentration at 6 h,[1]; [6],53.8 ng/mL
same,concentration at 24 h,[1]; [6],16 ng/mL
same,concentration at 0.5 h,"[1]; Monkey #10, .5 Hours, 30 mg Potassium Salt in H15 Plus 2% CSD Suppositories",2.39 ng/mL
same,concentration at 0.25 h,[1]; [7],19.8 ng/mL
same,concentration at 1 h,[1]; [7],6.61 ng/mL
same,concentration at 1.5 h,[1]; [7],8.13 ng/mL
same,concentration at 2 h,[1]; [7],9.8 ng/mL
same,concentration at 3 h,[1]; [7],9.48 ng/mL
same,concentration at 4 h,[1]; [7],18.7 ng/mL
same,concentration at 6 h,[1]; [7],28.7 ng/mL
same,concentration at 24 h,[1]; [7],23.4 ng/mL
same,concentration at 0.5 h,"[1]; Monkey #11, .5 Hours, 30 mg Potassium Salt in H15 Plus 2% CSD Suppositories",14 ng/mL
same,concentration at 0.25 h,[1]; [8],104 ng/mL
same,concentration at 1 h,[1]; [8],40.9 ng/mL
same,concentration at 1.5 h,[1]; [8],91.1 ng/mL
same,concentration at 2 h,[1]; [8],66.5 ng/mL
same,concentration at 3 h,[1]; [8],51.5 ng/mL
same,concentration at 4 h,[1]; [8],36.1 ng/mL
same,concentration at 6 h,[1]; [8],22.5 ng/mL
same,concentration at 24 h,[1]; [8],6.04 ng/mL
same,concentration at 0.5 h,"[1]; Monkey #12 (pregnant animal with uterine recording), .5 Hours, 30 mg Potassium Salt in H15 Plus 2% CSD Suppositories",55.7 ng/mL
same,concentration at 0.25 h,[1]; [9],7.45 ng/mL
same,concentration at 0.5 h,"[1]; Monkey #16, 0.5 Hours, 30 mg Potassium Salt in H15 Plus 2% CSD + 10% Triacetin Suppositories",7 ng/mL
same,concentration at 1 h,[1]; [9],12.6 ng/mL
same,concentration at 1.5 h,[1]; [9],19.9 ng/mL
same,concentration at 2 h,[1]; [9],40.2 ng/mL
same,concentration at 3 h,[1]; [9],45.5 ng/mL
same,concentration at 4 h,[1]; [9],31.4 ng/mL
same,concentration at 6 h,[1]; [9],34.5 ng/mL
same,concentration at 24 h,[1]; [9],14.2 ng/mL
same,concentration at 0.25 h,[1]; [10],7.98 ng/mL
same,concentration at 0.5 h,"[1]; Monkey #17, 0.5 Hours, 30 mg Potassium Salt in H15 Plus 2% CSD + 10% Triacetin Suppositories",2.15 ng/mL
same,concentration at 1 h,[1]; [10],1.27 ng/mL
same,concentration at 1.5 h,[1]; [10],1.86 ng/mL
same,concentration at 2 h,[1]; [10],1.75 ng/mL
same,concentration at 3 h,[1]; [10],20.1 ng/mL
same,concentration at 4 h,[1]; [10],3.13 ng/mL
same,concentration at 6 h,[1]; [10],6.97 ng/mL
same,concentration at 24 h,[1]; [10],21.9 ng/mL
same,concentration at 0.25 h,[1]; [11],56.8 ng/mL
same,concentration at 0.5 h,"[1]; Monkey #18, 0.5 Hours, 30 mg Potassium Salt in H15 Plus 2% CSD + 10% Triacetin Suppositories",207 ng/mL
same,concentration at 1 h,[1]; [11],64.4 ng/mL
same,concentration at 1.5 h,[1]; [11],38.3 ng/mL
same,concentration at 2 h,[1]; [11],87.2 ng/mL
same,concentration at 3 h,[1]; [11],47.8 ng/mL
same,concentration at 4 h,[1]; [11],35.5 ng/mL
same,concentration at 6 h,[1]; [11],33.9 ng/mL
same,concentration at 24 h,[1]; [11],8.31 ng/mL
same,Water content,[2]; after 5 days at ambient humidity,0.16%
same,hygroscopicity,[2]; crystalline solid,non-hygroscopic
